Reference: BindingDB's records for doi:10.1016/j.bmcl.2006.10.091 (Bristol Myers Squibb, 2007)

Experiment: Inhibition of MDC-induced chemotaxis in L1.2 cells expressing CCR4

IC50: 5 µM
SMILES: CCN(CC)C(C)CCCNc1nccc(NCc2ccc(Cl)cc2Cl)n1 (stereo unspecified) [N4-(2,4-dichlorobenzyl)-N2-(4-(diethylamino)pentyl)pyrimidine-2,4-diamine]
